pEC50: −log10 of the molar value.
Experiments:
Assay type in all cases: cell-based
[1] = target: T1, wild-type EGFR transformed Ba/F3 cells (Homo sapiens, UniProt P00533); assay: Proliferation inhibition assay, wild-type EGFR transformed Ba/F3 cells; details: MTS assay, 72 hours
T1 construct: expressed in transfected cells; host or cells: Ba/F3
Method: (§1) Cell growth inhibition can be assessed by MTS assay or by Cell Titer Glo Luminescent Cell viability assay (Promega®). Cells are seeded and grow in culture plates before they are exposed to representative compounds of the application for various duration. The viability of the cells are then assessed. […] The growth curves can be fitted using a nonlinear regression model with sigmoidal dose response.
(§2) Cell growth inhibition was assessed by MTS assay for Ba/F3, DFCI58-229, and DFCI127c cells, or by Cell Titer Glo Luminescent Cell viability assay (Promega®) for DFC1362JC cells, 3000 Ba/F3 cells were seeded for per well in 96-well plates, and were exposed to representative compounds of the application (3.3 nM to 10 μM) for 72 hours. For DFCI58-229, DFCI127c, and DFC1362JC cells, 5000 cells were seeded per well. All experimental points included 6 to 12 wells. […] The growth curves were fitted using a nonlinear regression model with sigmoidal dose response.
(§3) Activities of representative compounds of the present application in inhibiting EGFR and HER2 were tested by MTS assay (for Ba/F3 cell, DFCI58-229 cell, and DFCI127c cells) or by CellTiter-Glot luminescent cell viability assay (for DFCI362JC cells). For assays with Ba/F3 cells, 3000 cells were seeded for per well in 96-well plates and were exposed to indicated compounds with a concentration of 3.3 to 10 μM for 72 hours. For assays with DFCI58-229 cell, DFCI127c cell, or DFCI362JC cell, 5000 cells were seeded per well in 96-well plates and were exposed to indicated compounds with a concentration of 3.3 to 10 μM for 72 hours.

[2] = target: T2, EGFR InsSVD (D770_N771insSVD) transformed Ba/F3 cells (Homo sapiens, UniProt P00533, INS770SVD); assay: Proliferation inhibition assay, EGFR InsSVD transformed Ba/F3 cells; details: MTS assay, 72 hours
T2 construct: expressed in transfected cells; host or cells: Ba/F3
Method: as §1, §2, §3

[3] = target: T3, EGFR InsASV (V769_D770insASV) transformed Ba/F3 cells (Homo sapiens, UniProt P00533, INS769ASV); assay: Proliferation inhibition assay, EGFR InsASV transformed Ba/F3 cells; details: MTS assay, 72 hours
T3 construct: expressed in transfected cells; host or cells: Ba/F3
Method: as §1, §2, §3

[4] = target: T4, HER2 InsYVMA (A775_G776insYVMA) transformed Ba/F3 cells (Homo sapiens, UniProt P04626, INS775YVMA); assay: Proliferation inhibition assay, HER2 InsYVMA transformed Ba/F3 cells; details: MTS assay, 72 hours, Table 9 key
T4 construct: expressed in transfected cells; host or cells: Ba/F3
T4 sequence (P04626 with tags, fused parts or gaps INS775YVMA): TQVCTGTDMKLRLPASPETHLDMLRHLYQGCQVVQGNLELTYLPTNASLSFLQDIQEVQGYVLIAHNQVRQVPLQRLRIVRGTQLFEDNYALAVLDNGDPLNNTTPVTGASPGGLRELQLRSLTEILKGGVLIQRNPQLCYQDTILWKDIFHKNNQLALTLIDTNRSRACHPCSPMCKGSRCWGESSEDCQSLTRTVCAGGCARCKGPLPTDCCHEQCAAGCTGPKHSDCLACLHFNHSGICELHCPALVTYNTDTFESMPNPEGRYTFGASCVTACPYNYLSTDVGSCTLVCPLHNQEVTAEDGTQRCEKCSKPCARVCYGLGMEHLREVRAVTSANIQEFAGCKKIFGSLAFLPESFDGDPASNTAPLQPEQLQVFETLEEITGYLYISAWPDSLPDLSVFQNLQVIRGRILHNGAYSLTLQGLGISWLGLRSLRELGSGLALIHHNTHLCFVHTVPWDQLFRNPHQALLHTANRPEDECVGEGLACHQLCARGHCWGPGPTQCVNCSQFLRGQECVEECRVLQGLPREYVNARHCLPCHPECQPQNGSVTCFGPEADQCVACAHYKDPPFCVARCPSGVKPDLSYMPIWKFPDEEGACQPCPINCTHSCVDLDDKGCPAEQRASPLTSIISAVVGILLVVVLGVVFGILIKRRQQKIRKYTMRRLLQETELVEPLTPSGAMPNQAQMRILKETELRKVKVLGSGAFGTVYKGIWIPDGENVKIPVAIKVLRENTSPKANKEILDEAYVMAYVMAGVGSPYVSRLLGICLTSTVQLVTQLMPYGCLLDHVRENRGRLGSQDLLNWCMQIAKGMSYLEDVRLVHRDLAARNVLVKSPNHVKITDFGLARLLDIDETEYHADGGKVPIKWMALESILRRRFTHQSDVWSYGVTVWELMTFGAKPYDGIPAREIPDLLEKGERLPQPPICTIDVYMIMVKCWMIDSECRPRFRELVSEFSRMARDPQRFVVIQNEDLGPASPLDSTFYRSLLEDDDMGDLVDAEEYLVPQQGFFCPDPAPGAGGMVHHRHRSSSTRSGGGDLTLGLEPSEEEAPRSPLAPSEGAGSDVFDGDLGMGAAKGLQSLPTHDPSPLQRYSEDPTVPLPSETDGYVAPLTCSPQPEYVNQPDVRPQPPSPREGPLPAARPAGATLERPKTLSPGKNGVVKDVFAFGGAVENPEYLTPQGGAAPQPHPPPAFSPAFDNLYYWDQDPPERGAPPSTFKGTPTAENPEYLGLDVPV
Method: as §1, §2, §3

[5] = target: T5, wild-type HER2 transformed Ba/F3 cells (Homo sapiens, UniProt P04626); assay: Proliferation inhibition assay, wild-type HER2 transformed Ba/F3 cells; details: MTS assay, 72 hours, Table 9 key
T5 construct: expressed in transfected cells; host or cells: Ba/F3
Method: as §1, §2, §3

[6] = target: T6, HER2 InsWLV transformed Ba/F3 cells (Homo sapiens, UniProt P04626, INS773WL/M774V); assay: Proliferation inhibition assay, HER2 InsWLV transformed Ba/F3 cells; details: MTS assay, 72 hours, Table 9 key
T6 construct: expressed in transfected cells; host or cells: Ba/F3
Method: as §1, §2, §3

[7] = target: T7, EGFR InsGY (D770delinsGY) transformed Ba/F3 cells (Homo sapiens, UniProt P00533, D770Y/INS769G); assay: Proliferation inhibition assay, EGFR InsGY transformed Ba/F3 cells; details: MTS assay, 72 hours
T7 construct: expressed in transfected cells; host or cells: Ba/F3
Method: as §1, §2, §3

[8] = target: T8, EGFR InsHH (Y764_V765insHH) transformed Ba/F3 cells (Homo sapiens, UniProt P00533, INS764HH); assay: Proliferation inhibition assay, EGFR InsHH transformed Ba/F3 cells; details: MTS assay, 72 hours
T8 construct: expressed in transfected cells; host or cells: Ba/F3
T8 sequence (P00533 with tags, fused parts or gaps INS764HH): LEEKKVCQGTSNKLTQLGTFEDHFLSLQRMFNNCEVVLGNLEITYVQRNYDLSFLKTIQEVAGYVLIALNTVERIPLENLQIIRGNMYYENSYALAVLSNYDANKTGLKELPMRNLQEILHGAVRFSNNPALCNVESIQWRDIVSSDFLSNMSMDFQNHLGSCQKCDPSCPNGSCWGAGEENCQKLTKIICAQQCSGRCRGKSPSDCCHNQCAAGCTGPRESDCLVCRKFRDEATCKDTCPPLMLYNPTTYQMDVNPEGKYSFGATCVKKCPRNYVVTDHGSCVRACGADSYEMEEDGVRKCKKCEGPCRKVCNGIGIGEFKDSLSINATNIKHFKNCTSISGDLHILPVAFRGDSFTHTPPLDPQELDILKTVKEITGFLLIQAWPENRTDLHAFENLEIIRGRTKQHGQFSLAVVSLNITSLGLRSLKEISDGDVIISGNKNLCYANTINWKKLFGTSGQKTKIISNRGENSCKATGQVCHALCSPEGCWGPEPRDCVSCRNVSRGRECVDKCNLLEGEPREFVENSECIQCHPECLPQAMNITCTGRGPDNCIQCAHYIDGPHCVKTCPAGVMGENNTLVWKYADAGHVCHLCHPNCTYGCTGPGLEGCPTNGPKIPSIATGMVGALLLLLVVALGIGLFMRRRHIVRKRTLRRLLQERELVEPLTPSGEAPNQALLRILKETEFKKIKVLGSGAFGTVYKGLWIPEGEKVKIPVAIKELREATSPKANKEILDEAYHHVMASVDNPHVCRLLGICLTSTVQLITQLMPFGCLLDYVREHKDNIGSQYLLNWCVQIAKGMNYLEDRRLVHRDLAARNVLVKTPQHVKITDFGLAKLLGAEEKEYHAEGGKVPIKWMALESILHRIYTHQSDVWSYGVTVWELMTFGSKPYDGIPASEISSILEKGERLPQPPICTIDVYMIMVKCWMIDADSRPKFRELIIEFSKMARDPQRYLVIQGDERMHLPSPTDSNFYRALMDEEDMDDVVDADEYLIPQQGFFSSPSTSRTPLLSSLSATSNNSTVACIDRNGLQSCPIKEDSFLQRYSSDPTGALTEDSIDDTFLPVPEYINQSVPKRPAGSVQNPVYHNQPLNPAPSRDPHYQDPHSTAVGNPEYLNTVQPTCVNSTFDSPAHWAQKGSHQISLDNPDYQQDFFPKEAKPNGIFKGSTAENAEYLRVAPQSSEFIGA
Method: as §1, §2, §3

[9] = target: T9, EGFR InsNPG (D770_N771insNPG) transformed Ba/F3 cells (Homo sapiens, UniProt P00533, INS770NPG); assay: Proliferation inhibition assay, EGFR InsNPG transformed Ba/F3 cells; details: MTS assay, 72 hours
T9 construct: expressed in transfected cells; host or cells: Ba/F3
Method: as §1, §2, §3

[10] = target: T10, EGFR InsH transformed Ba/F3 cells (Homo sapiens, UniProt P00533, DUP773-773); assay: Proliferation inhibition assay, EGFR InsH transformed Ba/F3 cells; details: MTS assay, 72 hours
T10 construct: expressed in transfected cells; host or cells: Ba/F3
T10 sequence (P00533 with tags, fused parts or gaps DUP773-773): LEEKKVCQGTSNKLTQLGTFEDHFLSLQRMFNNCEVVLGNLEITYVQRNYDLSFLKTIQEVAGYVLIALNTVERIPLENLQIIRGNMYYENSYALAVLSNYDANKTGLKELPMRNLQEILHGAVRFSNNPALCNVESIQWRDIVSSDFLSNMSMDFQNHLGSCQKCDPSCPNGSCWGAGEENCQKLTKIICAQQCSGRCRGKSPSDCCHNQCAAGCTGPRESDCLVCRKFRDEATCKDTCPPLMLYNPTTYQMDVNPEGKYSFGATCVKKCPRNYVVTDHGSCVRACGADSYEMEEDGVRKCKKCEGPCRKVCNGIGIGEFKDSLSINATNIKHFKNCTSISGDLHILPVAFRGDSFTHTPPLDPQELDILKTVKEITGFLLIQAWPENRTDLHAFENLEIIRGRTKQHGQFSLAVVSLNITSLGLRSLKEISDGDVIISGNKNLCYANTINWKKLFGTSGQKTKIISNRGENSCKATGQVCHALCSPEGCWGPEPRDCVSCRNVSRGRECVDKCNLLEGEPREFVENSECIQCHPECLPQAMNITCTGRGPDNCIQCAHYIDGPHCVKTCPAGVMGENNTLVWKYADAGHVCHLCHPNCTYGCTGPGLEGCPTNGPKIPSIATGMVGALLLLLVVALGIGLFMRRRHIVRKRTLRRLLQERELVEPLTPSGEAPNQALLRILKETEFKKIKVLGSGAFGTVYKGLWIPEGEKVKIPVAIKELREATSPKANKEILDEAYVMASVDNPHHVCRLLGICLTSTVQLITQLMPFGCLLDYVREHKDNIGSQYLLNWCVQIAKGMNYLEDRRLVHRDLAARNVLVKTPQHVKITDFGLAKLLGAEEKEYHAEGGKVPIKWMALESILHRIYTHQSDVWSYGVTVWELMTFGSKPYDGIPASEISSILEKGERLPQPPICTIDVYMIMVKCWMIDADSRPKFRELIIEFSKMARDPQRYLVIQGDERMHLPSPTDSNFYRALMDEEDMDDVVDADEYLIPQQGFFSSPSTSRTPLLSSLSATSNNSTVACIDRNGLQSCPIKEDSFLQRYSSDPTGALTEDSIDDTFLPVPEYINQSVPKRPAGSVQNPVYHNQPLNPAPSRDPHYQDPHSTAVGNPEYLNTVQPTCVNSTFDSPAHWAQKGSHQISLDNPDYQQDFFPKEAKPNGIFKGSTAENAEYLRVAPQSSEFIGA
Method: as §1, §2, §3

[11] = target: T11, HER2 InsVC (G776delinsVC) transformed Ba/F3 cells (Homo sapiens, UniProt P04626, G776C/INS775V); assay: Proliferation inhibition assay, HER2 InsVC transformed Ba/F3 cells; details: MTS assay, 72 hours, Table 9 key
T11 construct: expressed in transfected cells; host or cells: Ba/F3
Method: as §1, §2, §3

[12] = target: T12, HER2 InsGSP (P780_Y781insGSP) transformed Ba/F3 cells (Homo sapiens, UniProt P04626, INS780GSP); assay: Proliferation inhibition assay, HER2 InsGSP transformed Ba/F3 cells; details: MTS assay, 72 hours, Table 9 key
T12 construct: expressed in transfected cells; host or cells: Ba/F3
T12 sequence (P04626 with tags, fused parts or gaps INS780GSP): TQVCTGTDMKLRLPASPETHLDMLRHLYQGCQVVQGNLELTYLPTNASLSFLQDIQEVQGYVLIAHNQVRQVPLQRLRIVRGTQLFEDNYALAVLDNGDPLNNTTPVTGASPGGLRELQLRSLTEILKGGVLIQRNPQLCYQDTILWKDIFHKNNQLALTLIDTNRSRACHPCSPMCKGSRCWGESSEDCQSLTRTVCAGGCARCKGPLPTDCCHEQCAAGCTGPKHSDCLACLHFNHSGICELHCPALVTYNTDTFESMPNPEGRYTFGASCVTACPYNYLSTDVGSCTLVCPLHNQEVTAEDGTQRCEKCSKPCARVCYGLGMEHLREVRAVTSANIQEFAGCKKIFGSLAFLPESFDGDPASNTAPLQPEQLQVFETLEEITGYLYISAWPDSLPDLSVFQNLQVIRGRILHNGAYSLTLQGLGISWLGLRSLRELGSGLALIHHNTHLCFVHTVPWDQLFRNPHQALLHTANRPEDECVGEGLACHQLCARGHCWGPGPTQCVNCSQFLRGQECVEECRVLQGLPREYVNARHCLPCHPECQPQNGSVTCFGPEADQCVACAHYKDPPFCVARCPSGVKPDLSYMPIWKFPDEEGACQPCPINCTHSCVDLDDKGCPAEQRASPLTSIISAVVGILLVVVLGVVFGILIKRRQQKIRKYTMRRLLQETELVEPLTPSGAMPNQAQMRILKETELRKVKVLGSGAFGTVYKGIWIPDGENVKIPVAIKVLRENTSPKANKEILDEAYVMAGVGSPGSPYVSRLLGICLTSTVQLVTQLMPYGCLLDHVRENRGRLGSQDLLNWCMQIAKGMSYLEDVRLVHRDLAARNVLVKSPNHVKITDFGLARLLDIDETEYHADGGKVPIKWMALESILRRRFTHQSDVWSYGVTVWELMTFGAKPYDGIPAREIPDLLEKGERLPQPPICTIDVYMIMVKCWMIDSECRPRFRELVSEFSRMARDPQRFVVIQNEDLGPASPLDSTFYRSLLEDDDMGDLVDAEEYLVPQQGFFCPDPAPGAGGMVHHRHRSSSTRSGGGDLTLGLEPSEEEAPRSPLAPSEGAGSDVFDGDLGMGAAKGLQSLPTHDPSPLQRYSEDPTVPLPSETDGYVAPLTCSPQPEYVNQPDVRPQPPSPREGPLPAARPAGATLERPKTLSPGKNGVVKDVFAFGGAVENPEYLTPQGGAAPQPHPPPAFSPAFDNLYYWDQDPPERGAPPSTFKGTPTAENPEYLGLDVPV
Method: as §1, §2, §3

| Compound | pEC50 [1] | pEC50 [2] | pEC50 [3] | pEC50 [4] | pEC50 [5] | pEC50 [6] | pEC50 [7] | pEC50 [8] | pEC50 [9] | pEC50 [10] | pEC50 [11] | pEC50 [12] |
| --- | --- | --- | --- | --- | --- | --- | --- | --- | --- | --- | --- | --- |
| C=CC(=O)Nc1cccc(-n2c(=O)c(Oc3ccc(F)cc3)cc3cnc(Nc4cnn(C)c4)nc32)c1 [Compound 1, N-(3-(6-(4-fluorophenoxy)-2-((1-methyl-1H-pyrazol-4-yl)amino)-7-oxopyrido[2,3-d]pyrimidin-8(7H)-yl)phenyl)acrylamide] | > 6.70 | > 6.70 | > 6.70 | > 7.00 | > 7.00 | 6.60 to 7.00 | > 6.70 | > 6.70 | > 6.70 | > 6.70 | > 7.00 | > 7.00 |
| C=CC(=O)Nc1cccc(-n2c(=O)c(Oc3ccc(F)cc3F)cc3cnc(Nc4cnn(C5CCN(C)CC5)c4)nc32)c1 [Compound 3] | > 6.70 | > 6.70 | > 6.70 | > 7.00 | > 7.00 | 6.60 to 7.00 | > 6.70 | 6.22 to 6.70 | > 6.70 | 6.22 to 6.70 | 6.60 to 7.00 | > 7.00 |
| C=CC(=O)Nc1cccc(-n2c(=O)c(Oc3ccc(F)cc3F)cc3cnc(Nc4cn(C)nc4OC)nc32)c1 [Compound 4] | > 6.70 | > 6.70 | > 6.70 | > 7.00 | > 7.00 | > 7.00 | > 6.70 | > 6.70 | > 6.70 | > 6.70 | > 7.00 | > 7.00 |
| C=CC(=O)Nc1cccc(-n2c(=O)c(Oc3ccc(F)cc3F)cc3cnc(Nc4cnn(C(F)F)c4)nc32)c1 [Compound 5] | > 6.70 | > 6.70 | > 6.70 | > 7.00 | > 7.00 | 6.60 to 7.00 | > 6.70 | > 6.70 | > 6.70 | > 6.70 | 6.60 to 7.00 | > 7.00 |
| C=CC(=O)Nc1cccc(-n2c(=O)c(Oc3ccc(F)cc3F)cc3cnc(Nc4ccc(N5CCN(C)CC5)cc4OC)nc32)c1 [Compound 6] | > 6.70 | > 6.70 | > 6.70 | > 7.00 | > 7.00 | > 7.00 | > 6.70 | > 6.70 | > 6.70 | > 6.70 | 6.60 to 7.00 | > 7.00 |
| C=CC(=O)Nc1cccc(-n2c(=O)c(Oc3ccc(F)cc3F)cc3cnc(Nc4ccc(N5CCC(N6CCN(C)CC6)CC5)cc4)nc32)c1 [Compound 7] | > 6.70 | > 6.70 | > 6.70 | > 7.00 | > 7.00 | 6.60 to 7.00 | > 6.70 | > 6.70 | > 6.70 | 6.22 to 6.70 | 6.60 to 7.00 | > 7.00 |
| C=CC(=O)Nc1cccc(-n2c(=O)c(Oc3ccc(F)cc3F)cc3cnc(Nc4cn(C)nc4OCC)nc32)c1 [Compound 8] | > 6.70 | > 6.70 | > 6.70 | > 7.00 | > 7.00 | > 7.00 | > 6.70 | > 6.70 | > 6.70 | > 6.70 | > 7.00 | > 7.00 |
| CN(C)C/C=C/C(=O)Nc1cccc(-n2c(=O)c(Oc3ccc(F)cc3F)cc3cnc(Nc4cnn(C)c4)nc32)c1 [Compound 10] | 6.22 to 6.70 | 6.22 to 6.70 | > 6.70 | > 7.00 | > 7.00 | 6.30 to 6.60 | 6.22 to 6.70 | 6.22 to 6.70 | > 6.70 | 6.00 to 6.22 | 6.30 to 6.60 | > 7.00 |
| C=CC(=O)N1CCC[C@@H](n2c(=O)c(Oc3ccc(F)cc3F)cc3cnc(Nc4cnn(C)c4)nc32)C1 [Compound 15, (R)-8-(1-acryloylpiperidin-3-yl)-6-(2,4-difluorophenoxy)-2-((1-methyl-1H-pyrazol-4-yl)amino)pyrido[2,3-d]pyrimidin-7(8H)-one] | > 6.70 | > 6.70 | > 6.70 | > 7.00 | > 7.00 | 6.60 to 7.00 | > 6.70 | 6.22 to 6.70 | > 6.70 | < 6.00 | > 7.00 | > 7.00 |
| C=CC(=O)N1CCC[C@@H](n2c(=O)c(Oc3ccc(F)cc3F)cc3cnc(Nc4cnn(C5CCN(C)CC5)c4)nc32)C1 [Compound 17] | > 6.70 | > 6.70 | > 6.70 | > 7.00 | > 7.00 | 6.30 to 6.60 | > 6.70 | 6.22 to 6.70 | > 6.70 | 6.00 to 6.22 | > 7.00 | > 7.00 |
| C=CC(=O)NC1CCCC(n2c(=O)c(Oc3ccc(F)cc3F)cc3cnc(Nc4cnn(C)c4)nc32)C1 (stereo not drawn) [Compound 23] | > 6.70 | > 6.70 | > 6.70 | > 7.00 | > 7.00 | 6.60 to 7.00 | > 6.70 | > 6.70 | > 6.70 | 6.22 to 6.70 | > 7.00 | > 7.00 |
| C=CC(=O)N1CCCC(n2c(=O)c(Oc3ccc(F)cc3F)cc3cnc(Nc4cnn(C)c4)nc32)CC1 (stereo not drawn) [Compound 24] | > 6.70 | > 6.70 | > 6.70 | > 7.00 | > 7.00 | 6.60 to 7.00 | > 6.70 | 6.22 to 6.70 | > 6.70 | 6.22 to 6.70 | > 7.00 | > 7.00 |
